Measurements as given in patent US20060026702A1, “Phosphoinositide 3-kinase mediated inhibition of GPCRs” (DUKE UNIVERSITY, priority 2002, published 2006).
Values belong to the molecule of their own block, whether it stands above or below them.

Tests used:
β2AR = β2AR sequestration in HEK-293 cells by 125I-Cyanopindolol binding; format: cell-based; conditions: 1 μM isoproterenol; LY294002 100 μM 15 min before
Procedure: Determination of β2AR Sequestration in HEK-293 Cells by ^125I-Cyanopindolol (CYP) Binding—β2AR sequestration was performed as previously described. Briefly, HEK-293 cells were plated at a density of 2.5×10^6 cells/dish and transfected the following day with plasmids containing either the β2AR (150-250 ng), β2AR (250 ng) and HEAT domain (4 μg), PI3Kγ (4.0 μg) or ΔPI3Kγ (4.0 μg) cDNAs. Twelve hours after transfection cells were split into six well Falcon plates at a density of 750,000 cells/well. […] To determine the amount of internalized receptor, 100 μl aliquots of whole cells were added to 150 μl of binding buffer (75 mM Tris-HCl, 10 mM MgCl2, 5 mM EDTA (pH 7.5)). Total binding was determined in the presence of 175 pM ^125I-CYP alone, the number of internalized receptors were determined by using 175 pM ^125I-CYP plus 100 nM CGP12177, and non-specific binding was determined using 175 pM ^125I-CYP plus 1 μM propranolol. Sequestration was calculated as the ratio of (specific receptor binding of ^125I-CYP in the presence of CGP12177)/(specific receptor binding of ^125I-CYP in the absence of CGP12177).

PI3K = biological target: T1, PI3K (Homo sapiens, UniProt P48736, DEL30-30/Q459R); assay: βARK1 associated PI3K activity (lipid kinase assay) in transfected NIH-3T3 cells; format: cell-based, Mouse; conditions: 10 μM isoproterenol, 2 min; cells co-transfected with βARK1 and HA-PI3Kγ
T1 construct: expressed in transfected cells; host or cells: NIH-3T3
Procedure: Cell Culture—Mouse NIH-3T3 and HEK293 cells were maintained in either Iscoves modified Dulbecco's medium or minimal essential medium (MEM) supplemented with 10% fetal bovine serum and 1:100 penicillin-streptomycin (10,000 U/ml) at 37° C. Cells were seeded at a density of ˜1-3×10^5 cells/35 mm^2 dish and at 70-80% confluence were transiently transfected using the transfection reagent FUGENE6 (ROCHE) or calcium phosphate precipitation. Cells were harvested 24 hours after transfection, re-plated in triplicate, allowed to grow overnight and serum starved for 2-4 hours before agonist stimulation.
Cytosolic and Membrane Fractionation—Cell monolayers were scraped in 1 ml of buffer containing 25 mM Tris-HCl (pH 7.5), 5 mM EDTA, 5 mM EGTA, 1 mM phenylmethylsulfonyl fluoride, 2 μg/ml each of leupeptin and aprotinin and disrupted further by using Dounce homogenizer. Intact cells and nuclei were removed by-centrifugation at 1,000×g for 5 min. The collected supernatant was further subject to a centrifugation at 38,000×g for 25 min. The pellet was resuspended in lysis buffer (1% Nonidet P-40, 10% glycerol, 137 mM NaCl, 20 mM Tris-Cl (ph 7.4), 1 mM phenylmethylsulfonyl fluoride, 20 mM NaF, 1 mM sodium pyrophosphate, 1 mM sodium orthovanadate and 2 μg/ml each of aprotinin and leupeptin) and used as membrane fraction and the supernatant was diluted in lysis buffer and used as the cytosolic fraction.
Lipid Kinase Assays—Cells were lysed in lysis buffer and 2 mg cytosolic extract was used for immunoprecipitation with either the C5/1 monoclonal antibody directed against βARK1, the anti-FLAG M2 monoclonal antibody (Sigma) or antibodies to p110γ, or p110β (Santa Cruz Biotechnology) and protein G-agarose. Sedimented beads were then washed once with 1 ml of lysis buffer, thrice with 1 ml of phosphate-buffered saline (1× phosphate-buffered saline, 1% NP-40 and 100 μM sodium orthovanadate), thrice with 1 ml of Tris/LiCl (100 mM Tris-HCl (pH 7.4), 5 mM LiCl and 100 μM sodium orthovanadate) and twice with TNE (10 mM Tris Cl (pH 7.4), 150 mM NaCl, 5 mM EDTA and 100 μM sodium orthovanadate). Samples were then resuspended in 50 ml of TNE and 10 μl of 100 mM MgCl2 was added to each sample. The substrate, phosphatidylinositol (PI, Avanti), was prepared by drying 50 μl of the 10 mg/ml stock (PI in chloroform) in an eppendorf tube with a stream of air and adding 250 μl of TE (10 mM Tris Cl (pH 7.4) and 1 mM EDTA). The PI was then suspended by sonication in an ice bath for 3 minutes. 10 p, of the PI solution and 11 μl of ATP solution (440 μM cold ATP and 1 μCi/μl of [γ-32P]ATP) were added to each sample. […] Autoradiography of dried plates was used to detect signals, and PIP was quantified by phosphorimaging. […] Values are expressed as fold increase/decrease relative to wild-type/control.

β2AR complex = assay: Recruitment of AP-2 adaptin and clathrin to the agonist-stimulated β2AR complex (immunoprecipitation, immunoblot); format: cell-based; conditions: saponin-permeabilized cells, isoproterenol 5 min; compared to similar concentration of Ptdlns (4,5) P2
Procedure: Immunoblotting and Detection—Immunoblotting and detection of PI3K, βARK1, HA-PI3Kγ, HA-ΔPI3Kγ, Myc-PI3Kα, FLAG-HEAT, PI3KΔHEAT-HA, FLAG-β2AR, HA-β2AR, β-adaptin and clathrin was carried out as previously described. Immunoprecipitating antibodies were added to 500 μg of cell lysate in lysis buffer followed by the addition of 35 μl of 1:1 Protein A- or G-agarose. Samples were rocked overnight at 4° C. then centrifuged at 12,000×g for 5 min. Immunoprecipitates were washed twice with lysis buffer, twice with 1×PBS and resuspended in 1×SDS-gel loading buffer. Proteins were resolved by SDS-polyacrylamide gel electrophoresis and blotted on to PVDF membrane (Bio-Rad). Blots were incubated with antibodies recognizing PI3K, Myc (Santa-Cruz), β-adaptin, clathrin heavy chain (BD Transduction Laboratories), HA (Roche Molecular Biochemicals) and FLAG (Sigma) at 1:2000 dilution and the βARK1 monoclonal antibody at 1:10,000 dilution. Blots were subsequently incubated with appropriate secondary antibody (1:2000 dilution) conjugated to horseradish peroxidase (Amersham Pharmacia Biotech) and detection was carried out using enhanced chemiluminescence. […]
The present inventors determined that βARK1-mediated localization of PI3K within the activated receptor complex is responsible for the generation of D-3 phosphatidylinositols necessary for the efficient recruitment of adaptin to the P2AR complex. […]

T1 sequence (P48736 with tags, fused parts or gaps DEL30-30/Q459R): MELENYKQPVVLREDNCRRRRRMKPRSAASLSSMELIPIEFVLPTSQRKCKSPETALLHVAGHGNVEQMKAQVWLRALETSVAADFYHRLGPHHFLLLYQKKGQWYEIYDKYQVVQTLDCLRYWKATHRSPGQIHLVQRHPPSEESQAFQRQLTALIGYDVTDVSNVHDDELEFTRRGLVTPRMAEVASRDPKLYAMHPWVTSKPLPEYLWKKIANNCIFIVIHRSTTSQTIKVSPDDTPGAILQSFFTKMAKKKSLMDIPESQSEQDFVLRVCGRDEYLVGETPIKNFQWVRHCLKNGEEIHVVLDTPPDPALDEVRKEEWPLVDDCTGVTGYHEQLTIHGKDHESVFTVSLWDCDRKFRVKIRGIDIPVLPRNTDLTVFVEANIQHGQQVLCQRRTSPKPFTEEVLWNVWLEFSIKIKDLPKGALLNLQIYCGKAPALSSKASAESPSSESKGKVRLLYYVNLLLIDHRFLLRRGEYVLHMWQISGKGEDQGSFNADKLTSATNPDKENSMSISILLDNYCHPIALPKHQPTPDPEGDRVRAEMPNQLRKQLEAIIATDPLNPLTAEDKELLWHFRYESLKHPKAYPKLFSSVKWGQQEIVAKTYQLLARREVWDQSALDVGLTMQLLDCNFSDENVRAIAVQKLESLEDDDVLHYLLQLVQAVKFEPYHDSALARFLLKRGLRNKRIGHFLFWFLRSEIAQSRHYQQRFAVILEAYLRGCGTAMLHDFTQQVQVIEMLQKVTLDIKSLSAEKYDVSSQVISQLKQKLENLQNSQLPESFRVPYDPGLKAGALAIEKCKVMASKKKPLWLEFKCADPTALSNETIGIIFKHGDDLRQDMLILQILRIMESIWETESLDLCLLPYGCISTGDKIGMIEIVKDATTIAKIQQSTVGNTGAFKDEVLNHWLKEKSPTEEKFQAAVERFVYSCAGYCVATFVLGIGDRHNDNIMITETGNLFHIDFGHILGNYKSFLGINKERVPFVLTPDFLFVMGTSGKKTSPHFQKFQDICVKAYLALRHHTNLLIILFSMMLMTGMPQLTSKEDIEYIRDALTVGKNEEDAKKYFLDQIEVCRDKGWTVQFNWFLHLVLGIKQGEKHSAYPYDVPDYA

Molecule: O=c1cc(N2CCOCC2)oc2c(-c3ccccc3)cccc12 [LY294002, reference compound]
reduction in sequestration (β2AR): 50%

βARK1 associated PI3K activity in the cytosolic fraction after agonist (PI3K): little change
βARK1 associated PI3K activity in the membrane fraction after agonist (PI3K): significant increase
Molecule: CC(C)NCC(O)c1ccc(O)c(O)c1 (stereo not shown) [isoproterenol, reference compound]

efficiency of recruitment of adaptin to the receptor (β2AR complex): significantly enhanced
Molecule: phosphatidylinositol 3,4,5-triphosphate [Ptdlns (3,4,5) P3, reference compound]
